The source of these data is US9321768B2, “Indoles as respiratory syncytial virus antiviral agents” (JANSSEN SCIENCES IRELAND UC, priority 2010, dated 2016).

Where two headings read alike, the source gives them in different places. Where only a bound is given, the exact number is not on record here.

The test system of one data set is rgRSV224 virus. In words: microbe, parasite or virus in culture. The class given is cell-based, respiratory syncytial virus (RSV). As to conditions: for EC50: read-out: WT activity EC50; for SI CC50/EC50: ratio of HeLa CC50 to rgRSV224 EC50. The method, then: (§1) Black 96-well clear-bottom microtiter plates (Corning, Amsterdam, The Netherlands) were filled in duplicate using a customized robot system with serial 4-fold dilutions of compound in a final volume of 50 μl culture medium [RPMI medium without phenol red, 10% FBS, 0.04% gentamycin (50 mg/ml) and 0.5% DMSO]. Then, 100 μl of a HeLa cell suspension (5×10^4 cells/ml) in culture medium was added to each well followed by the addition of 50 μl rgRSV224 (MOI=0.02) virus in culture medium using a multidrop dispenser (Thermo Scientific, Erembodegem, Belgium). rgRSV224 virus is an engineered virus that includes an additional GFP gene (Hallak et al, 2000) and was in-licensed from the NIH (Bethesda, Md., USA). Medium, virus- and mockinfected controls were included in each test. Cells were incubated at 37° C. in a 5% CO2 atmosphere. Three days post-virus exposure, viral replication was quantified by measuring GFP expression in the cells by a MSM laser microscope (Tibotec, Beerse, Belgium). The EC50 was defined as the 50% inhibitory concentration for GFP expression. In parallel, compounds were incubated for three days in a set of white 96-well microtitier plates (Corning) and the cytotoxicity of compounds in HeLa cells was determined by measuring the ATP content of the cells using the ATPlite kit (PerkinElmer, Zaventem, Belgium) according to the manufacturer's instructions. The CC50 was defined as the 50% concentration for cytotoxicity.

The nature of data set [1]: Cytotoxicity in HeLa cells, ATP content (ATPlite kit). The class given is cell-based. As to conditions: human. The method, then: as §1
On the technique in general: In ATP-based viability assays light output follows the ATP content of the culture.

Setting [2] is: human respiratory syncytial virus, HeLa, 72 h.
Where [3] appears, read: HeLa cells, three days incubation, ATP content, read-out: Toxicity CC50.
Where [4] appears, read: rgRSV224 (MOI=0.02) in HeLa cells, GFP expression three days post-virus exposure.

With `O=c1n(Cc2c(I)c3ccc(Cl)cc3n2CCCCO)c2cnccc2n1C1CC1` [Compound 15, 3-((6-Chloro-1-(4-hydroxybutyl)-3-iodo-1H-indol-2-yl)methyl)-1-cyclopropyl-1H-imidazo[4,5-c]pyridin-2(3H)-one], in the data set on rgRSV224 virus (setting [2]), the EC50 worked out at 76.7 nM. Moreover, the half-maximal cytotoxic concentration (CC50) at 3 days in data set [1] is over 9840 nM.
For the compound `CC(C)CCn1c(Cn2c(=O)n(C3CC3)c3ccncc32)c(C(N)=O)c2ccccc21` [Compound 14, 2-((1-cyclopropyl-2-oxo-1H-imidazo[4,5-c]pyridin-3(2H)-yl)methyl)-1-isopentyl-1H-indole-3-carboxamide], the EC50 in the data set with rgRSV224 virus (setting [2]) turned out to be 4.51 nM. Besides, the cytotoxic concentration (CC50) at 3 days in data set [1] (setting [3]) was over 24600 nM.
On to `CS(=O)(=O)CCCn1c(Cn2c(=O)n(C3CC3)c3ccccc32)cc2ccccc21` [Compound P28], for which the “SI CC50/EC50” value in the data set with rgRSV224 virus was 184. Moreover, in the data set with rgRSV224 virus (setting [4]), the concentration giving a half-maximal response (EC50) is 348 nM.
Take `CC(C)CCn1c(Cn2c(=O)n(C3CC3)c3ccncc32)cc2ccccc21` [Compound 12, 1-cyclopropyl-3-((1-isopentyl-1H-indol-2-yl)methyl)-1H-imidazo[4,5-c]pyridin-2(3H)-one]: in the data set on rgRSV224 virus (setting [2]), the EC50 was found to be 361 nM. Moreover, the CC50 at 3 days in data set [1] came out at 65500 nM.
For the compound `N#CCCCn1c(Cn2c(=O)n(C3CC3)c3ccncc32)cc2cc(Cl)ccc21` [Compound P33], the “SI CC50/EC50” value in the data set with rgRSV224 virus worked out at 190625. Besides, the concentration for a half-maximal effect (EC50) in the data set with rgRSV224 virus (setting [4]) was 0.266 nM.
Take `CC(C)CCn1c(Cn2c(=O)n(C3CC3)c3ccncc32)c(C(=O)O)c2ccccc21` [Compound 17, 2-((1-cyclopropyl-2-oxo-1H-imidazo[4,5-c]pyridin-3(2H)-yl)methyl)-1-isopentyl-1H-indole-3-carboxylic acid]: the half-maximal effective concentration (EC50) in the data set on rgRSV224 virus (setting [2]) turned out to be 159 nM. The CC50 at 3 days in data set [1] (setting [3]) is over 98400 nM.
In the case of `O=c1n(Cc2cc3cc(Cl)ccc3n2CCCCF)c2cnccc2n1C1COC1` [Compound P66], the “SI CC50/EC50” value in the data set on rgRSV224 virus was 21581. In the data set with rgRSV224 virus (setting [4]), the half-maximal effective concentration (EC50) amounted to 1.25 nM.
As to `CS(=O)(=O)CCCn1c(Cn2c(=O)n(C3CC3)c3ccncc32)cc2cc(Br)ccc21` [Compound 2, 3-((5-bromo-1-(3-(methylsulfonyl)propyl)-1H-indol-2-yl)methyl)-1-cyclopropyl-1H-imidazo[4,5-c]pyridine-2(3H)-one], the EC50 in the data set on rgRSV224 virus (setting [2]) was found to be 0.288 nM. The same compound registered a CC50 at 3 days in data set [1] of over 9840 nM.
Take `CS(=O)(=O)CCCn1c(Cn2c(=O)n(C3CC3)c3ccc(F)cc32)cc2cc(Cl)ccc21` [Compound 8, 3-((5-Chloro-1-(3-(methylsulfonyl)propyl)-1H-indol-2-yl)methyl)-1-cyclopropyl-5-fluoro-1H-benzo[d]imidazol-2(3H)-one]: the EC50 in the data set on rgRSV224 virus (setting [2]) was determined as 3.79 nM. For the same compound, the CC50 at 3 days in data set [1] was over 9840 nM.
For `CS(=O)(=O)CCCn1c(Cn2c(=O)n(C3COC3)c3ccncc32)cc2ccccc21` [Compound P24], the “SI CC50/EC50” value with rgRSV224 virus is reported as over 3065. In the data set on rgRSV224 virus (setting [4]), the EC50 is 32.6 nM.
Take `CCOC(=O)c1c(Cn2c(=O)n(C3CC3)c3ccncc32)n(CCC(C)C)c2ccccc12` [Compound 18, ethyl 2-((1-cyclopropyl-2-oxo-1H-imidazo[4,5-c]pyridin-3(2H)-yl)methyl)-1-isopentyl-1H-indole-3-carboxylate]: the EC50 with rgRSV224 virus (setting [2]) turned out to be 3010 nM. Besides, the half-maximal cytotoxic concentration (CC50) at 3 days in data set [1] (setting [3]) came to 32100 nM.
As to `CS(=O)(=O)CCCn1c(Cn2c(=O)n(CC(F)(F)F)c3ccc(F)cc32)cc2cc(Cl)ccc21` [Compound P50], the “SI CC50/EC50” value in the data set with rgRSV224 virus stood at 5176. The EC50 in the data set on rgRSV224 virus (setting [4]) was found to be 4.8 nM.
As to `O=c1n(Cc2cc3cc(Cl)ccc3n2CCCCF)c2cnccc2n1C1CC1` [Compound P30], the “SI CC50/EC50” value in the data set on rgRSV224 virus was determined as 24457. The EC50 with rgRSV224 virus (setting [4]) turned out to be 0.733 nM.
As to `O=c1n(Cc2cc3cc(Cl)ccc3n2CCCCO)c2cnccc2n1C1CC1` [Compound 7, 3-((5-Chloro-1-(4-hydroxybutyl)-1H-indol-2-yl)methyl)-1-cyclopropyl-1H-imidazo[4,5-c]pyridin-2(3H)-one], the concentration for a half-maximal effect (EC50) in the data set on rgRSV224 virus (setting [2]) was found to be 2.24 nM. In data set [1], this compound showed a 50% cytotoxic concentration (CC50) at 3 days of 47600 nM.
`CC(C)(O)CCCn1c(Cn2c(=O)n(C3CC3)c3ccncc32)cc2cc(Cl)ccc21` [Compound P72]: the “SI CC50/EC50” value in the data set on rgRSV224 virus is on record as 24273. Besides, in the data set with rgRSV224 virus (setting [4]), the concentration for a half-maximal effect (EC50) worked out at 1.58 nM.
For `COc1ccc2c(c1)n(Cc1cc3cc(F)ccc3n1CCCS(C)(=O)=O)c(=O)n2C1CC1` [Compound P41] the same measures were 886 and 63.4 nM.
For `CS(=O)(=O)CCCn1c(Cn2c(=O)n(CC(F)(F)F)c3ccncc32)cc2cc(Cl)ccc21` [Compound P55] the same measures were over 258982 and under 0.157 nM.
For `O=c1n(Cc2cc3cc(Br)ccc3n2CCCC(F)(F)F)c2cnccc2n1C1CC1` [Compound P32] the same measures were 53514 and 0.34 nM.
In the case of `CS(=O)(=O)CCCn1c(Cn2c(=O)n(C3CC3)c3ccncc32)cc2cc(C(F)(F)F)ccc21` [Compound P23], the “SI CC50/EC50” value in the data set with rgRSV224 virus is listed as 6557. Besides, the EC50 with rgRSV224 virus (setting [4]) turned out to be 7.37 nM.
For `CS(=O)(=O)CCCn1c(Cn2c(=O)n(C3COC3)c3ccncc32)cc2cc(F)ccc21` [Compound P22] the same measures were over 4200 and 23.8 nM.
`O=c1n(Cc2cc3cc(Br)ccc3n2CCCC(F)(F)F)c2ccccc2n1C1CC1` [Compound P31]: the “SI CC50/EC50” value in the data set on rgRSV224 virus is on record as 3446. Moreover, the EC50 in the data set with rgRSV224 virus (setting [4]) came out at 12.1 nM.
For `N#CCCCn1c(Cn2c(=O)n(C3CC3)c3ccccc32)cc2cc(Cl)ccc21` [Compound P35] the same measures were 5353 and 3.14 nM.
For `CS(=O)(=O)CCCn1c(Cn2c(=O)n(C3CC3)c3ccc(F)cc32)cc2cc(F)ccc21` [Compound P27] the same measures were 664 and 36 nM.
For `O=c1n(Cc2cc3cc(F)ccc3n2CCCCF)c2ccccc2n1C1CC1` [Compound P34] the same measures were over 398 and 251 nM.
Consider `O=c1n(Cc2cc3cc(Cl)ccc3n2CCCC(F)(F)F)c2cnccc2n1C1COC1` [Compound P67], for which, in the data set with rgRSV224 virus, the “SI CC50/EC50” value was over 85461. The EC50 with rgRSV224 virus (setting [4]) stood at 1.25 nM.
For the compound `CC(C)(O)CCCn1c(Cn2c(=O)n(C3COC3)c3ccncc32)cc2cc(Cl)ccc21` [Compound P73], in the data set on rgRSV224 virus, the “SI CC50/EC50” value worked out at 15070. The 50% effective concentration (EC50) in the data set with rgRSV224 virus (setting [4]) was 3.16 nM.
For `CS(=O)(=O)CCCn1c(Cn2c(=O)n(C3CC3)c3ccccc32)cc2cc(Br)ccc21` [Compound P21] the same measures were 6322 and 3.88 nM.
For `NC(=O)c1c(Cn2c(=O)n(C3CC3)c3ccc(F)cc32)n(CCCC(F)(F)F)c2ccc(Cl)cc12` [Compound P65] the same measures were over 45348 and 1.1 nM.
As to `NC(=O)c1c(Cn2c(=O)n(C3CC3)c3ccncc32)n(CCCCF)c2ccc(Cl)cc12` [Compound P54, 5-chloro-2-((1-cyclopropyl-2-oxo-1H-imidazo[4,5-c]pyridin-3(2H)-yl)methyl)-1-(4-fluorobutyl)-1H-indole-3-carboxamide], in the data set with rgRSV224 virus (setting [2]), the concentration for a half-maximal effect (EC50) worked out at 0.0528 nM. Further, in the data set with rgRSV224 virus, the “SI CC50/EC50” value is over 603587.
Regarding `CS(=O)(=O)CCCn1c(Cn2c(=O)n(C3CC3)c3ccncc32)cc2ccccc21` [Compound P25], the “SI CC50/EC50” value with rgRSV224 virus is listed as over 10945. In addition, the EC50 in the data set with rgRSV224 virus (setting [4]) was determined as 9.14 nM.
Take `CC(C)(O)CCCn1c(Cn2c(=O)n(CC(F)(F)F)c3ccncc32)cc2cc(Cl)ccc21` [Compound P74]: the “SI CC50/EC50” value with rgRSV224 virus turned out to be 15708. For the same compound, the half-maximal effective concentration (EC50) in the data set on rgRSV224 virus (setting [4]) was 3.16 nM.
For `O=c1n(Cc2cc3cc(Cl)ccc3n2CCCN2CCOCC2)c2cnccc2n1C1CC1` [Compound P58] the same measures were 7416 and 5.8 nM.
For `NC(=O)c1c(Cn2c(=O)n(C3CC3)c3ccc(F)cc32)n(CCCCF)c2ccc(Cl)cc12` [Compound P63] the same measures were over 89869 and 1.11 nM.
For `N#CCCCn1c(Cn2c(=O)n(CC(F)(F)F)c3ccncc32)cc2cc(Cl)ccc21` [Compound P62] the same measures were 81459 and 0.539 nM.
Consider `O=C(NC1CC1)c1c(Cn2c(=O)n(C3CC3)c3ccncc32)n(CCCC(F)(F)F)c2ccc(Cl)cc12` [Compound P68], for which, in the data set with rgRSV224 virus, the “SI CC50/EC50” value came to 249. Besides, the concentration giving a half-maximal response (EC50) with rgRSV224 virus (setting [4]) came out at 12.6 nM.
For `CS(=O)(=O)CCCn1c(Cn2c(=O)n(C3CC3)c3ccncc32)cc2cc(F)ccc21` [Compound P20] the same measures were 15206 and 4.07 nM.
On to `O=c1n(Cc2cc3cc(F)ccc3n2CCCCF)c2cnccc2n1C1CC1` [Compound P29], for which the “SI CC50/EC50” value in the data set with rgRSV224 virus stood at 2149. Moreover, the concentration for a half-maximal effect (EC50) in the data set with rgRSV224 virus (setting [4]) was determined as 13.8 nM.
For `CS(=O)(=O)CCCn1c(Cn2c(=O)n(C3CC3)c3ccccc32)cc2cc(Cl)ccc21` [Compound P40] the same measures were over 29923 and 2.94 nM.
For `CNC(=O)c1c(Cn2c(=O)n(C3CC3)c3ccncc32)n(CCCC(F)(F)F)c2ccc(Cl)cc12` [Compound P64] the same measures were over 3896 and 6.42 nM.
For `CS(=O)(=O)CCCn1c(Cn2c(=O)n(C3CC3)c3ccccc32)cc2cc(F)ccc21` [Compound P26] the same measures were 2270 and 22.6 nM.

Usually EC50 stands for the concentration that produces a half-maximal response. What is called CC50 is the concentration giving 50% cytotoxicity.
